Assay results from US20240100170A1, “CYCLIC-AMP RESPONSE ELEMENT BINDING PROTEIN (CBP) AND/OR ADENOVIRAL E1A BINDING PROTEIN OF 300 KDA (P300) DEGRADATION COMPOUNDS AND METHODS OF USE” (CULLGEN (SHANGHAI), INC., priority 2020, published 2024).
Where two headings read alike, the source gives them in different places.

Key:
[1] = test system: LNCaP prostate cancer cell; assay: LNCaP cell viability (CellTiter-Glo); format: cell-based; details: Homo sapiens, 72 h, LNCaP cell viability, 3 days, CellTiter-Glo
Outline: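 CellTiter-Glo luminescence measured three days after dosing with a 12-point 3-fold compound dilution series. LNCaP cells seeded at 5000/well in RPMI 1640 with 10% FBS; data normalized to untreated controls and IC50 fitted by nonlinear least-squares regression.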

[2] = biological target: P300 (Homo sapiens, UniProt Q09472); assay: percentage of inhibition (degradation) of p300 at 10 nM, Tables 2-4; format: cell-based; set-up: LNCaP or 22RV1 cells that express CBP/P300 proteins were treated with GNE-781 or the bivalent compounds; endogenous in cells; host or cells: LNCaP or 22RV1 (not given); details: read-out: Degradation (10 nM)
P300, sequence (Q09472 whole entry): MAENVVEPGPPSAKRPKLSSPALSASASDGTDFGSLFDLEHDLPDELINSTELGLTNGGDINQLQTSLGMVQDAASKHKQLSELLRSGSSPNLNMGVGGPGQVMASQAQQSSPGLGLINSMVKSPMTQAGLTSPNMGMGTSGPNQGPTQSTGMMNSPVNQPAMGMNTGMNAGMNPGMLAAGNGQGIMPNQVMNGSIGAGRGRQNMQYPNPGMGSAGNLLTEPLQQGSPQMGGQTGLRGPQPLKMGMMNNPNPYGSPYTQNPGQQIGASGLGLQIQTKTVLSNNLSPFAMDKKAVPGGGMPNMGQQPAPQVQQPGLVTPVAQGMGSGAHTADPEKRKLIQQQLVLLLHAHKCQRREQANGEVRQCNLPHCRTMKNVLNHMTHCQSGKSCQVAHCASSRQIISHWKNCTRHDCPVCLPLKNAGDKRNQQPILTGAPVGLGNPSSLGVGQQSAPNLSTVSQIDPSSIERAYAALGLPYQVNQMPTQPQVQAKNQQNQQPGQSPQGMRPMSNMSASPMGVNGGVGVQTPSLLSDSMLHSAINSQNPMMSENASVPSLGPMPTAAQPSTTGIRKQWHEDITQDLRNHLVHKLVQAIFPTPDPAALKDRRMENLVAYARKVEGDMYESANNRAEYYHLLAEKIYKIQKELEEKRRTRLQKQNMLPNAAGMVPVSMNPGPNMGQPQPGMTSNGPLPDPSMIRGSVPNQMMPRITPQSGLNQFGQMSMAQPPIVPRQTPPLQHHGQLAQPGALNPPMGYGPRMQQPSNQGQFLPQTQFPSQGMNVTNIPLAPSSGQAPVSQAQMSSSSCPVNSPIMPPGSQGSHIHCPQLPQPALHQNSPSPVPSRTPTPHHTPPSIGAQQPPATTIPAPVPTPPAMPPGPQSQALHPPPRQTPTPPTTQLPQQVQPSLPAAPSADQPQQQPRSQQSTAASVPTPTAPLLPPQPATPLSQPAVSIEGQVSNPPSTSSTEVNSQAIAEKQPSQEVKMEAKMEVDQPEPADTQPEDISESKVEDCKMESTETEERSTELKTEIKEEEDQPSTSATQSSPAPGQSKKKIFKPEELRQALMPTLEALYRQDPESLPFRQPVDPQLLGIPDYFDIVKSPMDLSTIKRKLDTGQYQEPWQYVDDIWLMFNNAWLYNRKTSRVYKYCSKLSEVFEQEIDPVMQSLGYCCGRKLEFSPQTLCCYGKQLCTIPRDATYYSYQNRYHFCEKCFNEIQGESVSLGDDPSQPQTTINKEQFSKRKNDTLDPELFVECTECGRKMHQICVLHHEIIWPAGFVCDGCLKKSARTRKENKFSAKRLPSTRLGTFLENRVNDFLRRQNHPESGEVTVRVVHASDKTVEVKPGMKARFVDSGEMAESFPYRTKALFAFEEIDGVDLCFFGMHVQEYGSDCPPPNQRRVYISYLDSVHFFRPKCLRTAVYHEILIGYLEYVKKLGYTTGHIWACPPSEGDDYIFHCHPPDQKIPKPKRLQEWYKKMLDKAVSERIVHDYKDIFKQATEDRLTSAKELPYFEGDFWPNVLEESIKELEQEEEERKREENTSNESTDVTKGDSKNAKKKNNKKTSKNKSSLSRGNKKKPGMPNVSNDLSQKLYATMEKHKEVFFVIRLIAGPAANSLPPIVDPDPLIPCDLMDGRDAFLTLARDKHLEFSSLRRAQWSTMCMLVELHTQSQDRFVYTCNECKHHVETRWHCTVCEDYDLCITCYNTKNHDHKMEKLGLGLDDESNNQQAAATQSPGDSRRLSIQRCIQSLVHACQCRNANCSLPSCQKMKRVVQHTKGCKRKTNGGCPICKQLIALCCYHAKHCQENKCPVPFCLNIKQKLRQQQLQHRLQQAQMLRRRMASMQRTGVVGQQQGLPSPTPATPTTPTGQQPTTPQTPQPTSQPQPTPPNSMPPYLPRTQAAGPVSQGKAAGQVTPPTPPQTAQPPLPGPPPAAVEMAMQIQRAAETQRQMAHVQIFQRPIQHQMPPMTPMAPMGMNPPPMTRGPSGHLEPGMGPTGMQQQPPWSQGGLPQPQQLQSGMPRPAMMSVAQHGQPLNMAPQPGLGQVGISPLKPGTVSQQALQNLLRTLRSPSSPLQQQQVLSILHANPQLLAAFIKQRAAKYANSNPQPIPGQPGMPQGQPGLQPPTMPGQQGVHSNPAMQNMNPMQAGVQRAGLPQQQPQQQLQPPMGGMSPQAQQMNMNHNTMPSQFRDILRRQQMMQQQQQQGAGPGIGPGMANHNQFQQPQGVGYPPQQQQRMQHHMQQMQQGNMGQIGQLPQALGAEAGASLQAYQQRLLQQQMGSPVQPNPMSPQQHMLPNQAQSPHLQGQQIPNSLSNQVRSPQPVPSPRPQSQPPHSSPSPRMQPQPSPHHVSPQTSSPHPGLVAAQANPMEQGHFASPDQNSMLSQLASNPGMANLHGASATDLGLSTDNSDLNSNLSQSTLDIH
Outline: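 Degradation was measured at 10 nM. Cells or tissue were lysed in RIPA with protease and phosphatase inhibitors for 30 min at 4 °C and cleared, and protein was quantified by BCA. Lysates were resolved by SDS-PAGE, detected by chemiluminescent immunoblot, and bands were quantified by densitometry.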

Row | IC50 ([1]; Table 4) | inhibition at 0.01 µM ([2]; p300, 10 nM, Table 4) | IC50 ([1]; Table 3) | inhibition at 0.01 µM ([2]; p300, 10 nM, Table 3) | Compound | inhibition at 0.01 µM [2]
1 | 33.1 nM | 20 to 50% |  |  | CC(=O)N1CCc2c(c(N3CCCc4cc(-c5cnn(C)c5)c(C(F)F)cc43)nn2C2CCN(C(=O)CCCN3CCN(Cc4ccc5c(c4)n(C)c(=O)n5C4CCC(=O)NC4=O)CC3)CC2)C1 (stereo not shown) [P-215, 3-(5-((4-(4-(4-(5-Acetyl-3-(7-(difluoromethyl)-6-(1-methyl-1H-pyrazol-4-yl)-3,4-dihydroquinolin-1(2H)-yl)-4,5,6,7-tetrahydro-1H-pyrazolo[4,3-c]pyridin-1-yl)piperidin-1-yl)-4-oxobutyl)piperazin-1-yl)methyl)-3-methyl-2-oxo-2,3-dihydro-1H-benzo[d]imidazol-1-yl)piperidine-2,6-dione] | 
2 | 3.1 nM | 50 to 80% |  |  | CC(=O)N1CCc2c(c(N3CCCc4cc(-c5cnn(C)c5)c(C(F)F)cc43)nn2C2CCN(Cc3cccc(COc4cccc5c4CN(C4CCC(=O)NC4=O)C5=O)c3)CC2)C1 (stereo not shown) [P-202, 3-(4-((3-((4-(5-acetyl-3-(7-(difluoromethyl)-6-(1-methyl-1H-pyrazol-4-yl)-3,4-dihydroquinolin-1(2H)-yl)-4,5,6,7-tetrahydro-1H-pyrazolo[4,3-c]pyridin-1-yl)piperidin-1-yl)methyl)benzyl)oxy)-1-oxoisoindolin-2-yl)piperidine-2,6-dione] | 
3 | 21.6 nM | 50 to 80% |  |  | CC(=O)N1CCc2c(c(N3CCCc4cc(-c5cnn(C)c5)c(C(F)F)cc43)nn2C2CCN(C(=O)CCCN3CCC(CNc4ccc5c(c4)n(C)c(=O)n5C4CCC(=O)NC4=O)CC3)CC2)C1 (stereo not shown) [P-217, 3-(5-(((1-(4-(4-(5-Acetyl-3-(7-(difluoromethyl)-6-(1-methyl-1H-pyrazol-4-yl)-3,4-dihydroquinolin-1(2H)-yl)-4,5,6,7-tetrahydro-1H-pyrazolo[4,3-c]pyridin-1-yl)piperidin-1-yl)-4-oxobutyl)piperidin-4-yl)methyl)amino)-3-methyl-2-oxo-2,3-dihydro-1H-benzo[d]imidazol-1-yl)piperidine-2,6-dione] | 
4 |  |  | > 10000 nM | < 20% | CNC(=O)N1CCc2c(c(N3CCCc4cc(-c5cnn(CC(=O)NCCOCCC(=O)N[C@H](C(=O)N6C[C@H](O)C[C@H]6C(=O)NCc6ccc(-c7scnc7C)cc6)C(C)(C)C)c5)c(C(F)F)cc43)nn2C2CCOCC2)C1 [P-074, 3-(7-(difluoromethyl)-6-(1-(2-((2-(3-(((S)-1-((2S,4R)-4-hydroxy-2-((4-(4-methylthiazol-5-yl)benzyl)carbamoyl)pyrrolidin-1-yl)-3,3-dimethyl-1-oxobutan-2-yl)amino)-3-oxopropoxy)ethyl)amino)-2-oxoethyl)-1H-pyrazol-4-yl)-3,4-dihydroquinolin-1(2H)-yl)-N-methyl-1-(tetrahydro-2H-pyran-4-yl)-1,4,6,7-tetrahydro-5H-pyrazolo[4,3-c]pyridine-5-carboxamide] | 
5 | 1.3 nM | > 80% |  |  | CC(=O)N1CCc2c(c(N3CCCc4cc(-c5cnn(C)c5)c(C(F)F)cc43)nn2C2CCN(C(=O)CC3CCN(c4ccc(C(=O)NC5CCC(=O)NC5=O)c5ncccc45)CC3)CC2)C1 (stereo not shown) [P-256, 5-(4-(2-(4-(5-acetyl-3-(7-(difluoromethyl)-6-(1-methyl-1H-pyrazol-4-yl)-3,4-dihydroquinolin-1(2H)-yl)-4,5,6,7-tetrahydro-1H-pyrazolo[4,3-c]pyridin-1-yl)piperidin-1-yl)-2-oxoethyl)piperidin-1-yl)-N-(2,6-dioxopiperidin-3-yl)quinoline-8-carboxamide] | 
6 | 0.3 nM | > 80% |  |  | CC(=O)N1CCc2c(c(N3CCCc4cc(-c5cnn(C)c5)c(C(F)F)cc43)nn2C2CCN(C(=O)CN3CCC(CCc4cccc5c4n(C)c(=O)n5C4CCC(=O)NC4=O)CC3)CC2)C1 (stereo not shown) [P-228, 3-(4-(2-(1-(2-(4-(5-acetyl-3-(7-(difluoromethyl)-6-(1-methyl-1H-pyrazol-4-yl)-3,4-dihydroquinolin-1(2H)-yl)-4,5,6,7-tetrahydro-1H-pyrazolo[4,3-c]pyridin-1-yl)piperidin-1-yl)-2-oxoethyl)piperidin-4-yl)ethyl)-3-methyl-2-oxo-2,3-dihydro-1H-benzo[d]imidazol-1-yl)piperidine-2,6-dione] | 
7 | 1.1 nM | > 80% |  |  | CC(=O)N1CCc2c(c(N3CCCc4cc(-c5cnn(C)c5)c(C(F)F)cc43)nn2C2CCN(C(=O)CCCCCNc3ccc(C(=O)NC4CCC(=O)NC4=O)c4ncccc34)CC2)C1 (stereo not shown) [P-242, 5-((6-(4-(5-acetyl-3-(7-(difluoromethyl)-6-(1-methyl-1H-pyrazol-4-yl)-3,4-dihydroquinolin-1(2H)-yl)-4,5,6,7-tetrahydro-1H-pyrazolo[4,3-c]pyridin-1-yl)piperidin-1-yl)-6-oxohexyl)amino)-N-(2,6-dioxopiperidin-3-yl)quinoline-8-carboxamide] | 
8 | 10.4 nM | > 80% |  |  | CC(=O)N1CCc2c(c(N3CCCc4cc(-c5cnn(C)c5)c(C(F)F)cc43)nn2C2CCN(CCCCC3CN(c4cccc5c4C(=O)N(C4CCC(=O)NC4=O)C5=O)C3)CC2)C1 (stereo not shown) [P-201, 4-(3-(4-(4-(5-acetyl-3-(7-(difluoromethyl)-6-(1-methyl-1H-pyrazol-4-yl)-3,4-dihydroquinolin-1(2H)-yl)-4,5,6,7-tetrahydro-1H-pyrazolo[4,3-c]pyridin-1-yl)piperidin-1-yl)butyl)azetidin-1-yl)-2-(2,6-dioxopiperidin-3-yl)isoindoline-1,3-dione] | 
9 | 3.5 nM | > 80% |  |  | CC(=O)N1CCc2c(c(N3CCCc4cc(-c5cnn(C)c5)c(C(F)F)cc43)nn2C2CCN(C(=O)CCCN3CCC(C#Cc4ccc5c(c4)n(C)c(=O)n5C4CCC(=O)NC4=O)CC3)CC2)C1 (stereo not shown) [P-211, 3-(5-((1-(4-(4-(5-acetyl-3-(7-(difluoromethyl)-6-(1-methyl-1H-pyrazol-4-yl)-3,4-dihydroquinolin-1(2H)-yl)-4,5,6,7-tetrahydro-1H-pyrazolo[4,3-c]pyridin-1-yl)piperidin-1-yl)-4-oxobutyl)piperidin-4-yl)ethynyl)-3-methyl-2-oxo-2,3-dihydro-1H-benzo[d]imidazol-1-yl)piperidine-2,6-dione] | 
10 | 844 nM | < 20% |  |  | CC(=O)N1CCc2c(c(N3CCCc4cc(-c5cnn(C)c5)c(C(F)F)cc43)nn2C2CCN(CCCN3CCC(Cn4c(=O)n(C5CCC(=O)NC5=O)c5ccccc54)CC3)CC2)C1 (stereo not shown) [P-235, 3-(3-((1-(3-(4-(5-Acetyl-3-(7-(difluoromethyl)-6-(1-methyl-1H-pyrazol-4-yl)-3,4-dihydroquinolin-1(2H)-yl)-4,5,6,7-tetrahydro-1H-pyrazolo[4,3-c]pyridin-1-yl)piperidin-1-yl)propyl)piperidin-4-yl)methyl)-2-oxo-2,3-dihydro-1H-benzo[d]imidazol-1-yl)piperidine-2,6-dione] | 
11 | 486 nM | < 20% |  |  | CC(=O)N1CCc2c(c(N3CCCc4cc(-c5cnn(C)c5)c(C(F)F)cc43)nn2C2CCN(C(=O)CCCCCCCCC(=O)Nc3cccc(NC4CCC(=O)NC4=O)c3)CC2)C1 (stereo not shown) [P-264, 10-(4-(5-Acetyl-3-(7-(difluoromethyl)-6-(1-methyl-1H-pyrazol-4-yl)-3,4-dihydroquinolin-1(2H)-yl)-4,5,6,7-tetrahydro-1H-pyrazolo[4,3-c]pyridin-1-yl)piperidin-1-yl)-N-(3-((2,6-dioxopiperidin-3-yl)amino)phenyl)-10-oxodecanamide] | 
12 | 0.8 nM | > 80% |  |  | CC(=O)N1CCc2c(c(N3CCCc4cc(-c5cnn(C)c5)c(C(F)F)cc43)nn2C2CCN(CCCN3CCC(CCc4ccc5c(c4)n(C)c(=O)n5C4CCC(=O)NC4=O)CC3)CC2)C1 (stereo not shown) [P-244, 3-(5-(2-(1-(3-(4-(5-acetyl-3-(7-(difluoromethyl)-6-(1-methyl-1H-pyrazol-4-yl)-3,4-dihydroquinolin-1(2H)-yl)-4,5,6,7-tetrahydro-1H-pyrazolo[4,3-c]pyridin-1-yl)piperidin-1-yl)propyl)piperidin-4-yl)ethyl)-3-methyl-2-oxo-2,3-dihydro-1H-benzo[d]imidazol-1-yl)piperidine-2,6-dione] | 

Row | Compound | IC50 ([1]; Table 4) | inhibition at 0.01 µM ([2]; p300, 10 nM, Table 4) | IC50 ([1]; Table 3) | inhibition at 0.01 µM ([2]; p300, 10 nM, Table 3) | inhibition at 0.01 µM [2]
13 | CC(=O)N1CCc2c(c(N3CCCc4cc(-c5cnn(C)c5)c(C(F)F)cc43)nn2C2CCN(CCN3CCOC(COc4cccc5c4C(=O)N(C4CCC(=O)NC4=O)C5=O)C3)CC2)C1 (stereo not shown) [P-189, 4-((4-(2-(4-(5-acetyl-3-(7-(difluoromethyl)-6-(1-methyl-1H-pyrazol-4-yl)-3,4-dihydroquinolin-1(2H)-yl)-4,5,6,7-tetrahydro-1H-pyrazolo[4,3-c]pyridin-1-yl)piperidin-1-yl)ethyl)morpholin-2-yl)methoxy)-2-(2,6-dioxopiperidin-3-yl)isoindoline-1,3-dione] | 38 nM |  |  |  | > 80%
14 | CC(=O)N1CCc2c(c(N3CCCc4cc(-c5cnn(C)c5)c(C(F)F)cc43)nn2C2CCN(CCN3CCC4(CC3)CN(c3cccc5c3C(=O)N(C3CCC(=O)NC3=O)C5=O)C4)CC2)C1 (stereo not shown) [P-245, 4-(7-(2-(4-(5-acetyl-3-(7-(difluoromethyl)-6-(1-methyl-1H-pyrazol-4-yl)-3,4-dihydroquinolin-1(2H)-yl)-4,5,6,7-tetrahydro-1H-pyrazolo[4,3-c]pyridin-1-yl)piperidin-1-yl)ethyl)-2,7-diazaspiro[3.5]nonan-2-yl)-2-(2,6-dioxopiperidin-3-yl)isoindoline-1,3-dione] | > 500 nM |  |  |  | 20 to 50%
